The test has as its system WiDr cells expressing the human NTS1R. In words: Cell uptake / internalization assay in WiDr cells. Format: cell-based. The following applies: confluent WiDr cells, 1 h, 37 °C, 250 fmol peptide, non-specific (1 μM NT) subtracted, average ± sd of 3 experiments in triplicate; for internalized fraction vs total added activity: acid wash then lysis. The protocol: Human colorectal adenocarcinoma WiDr cells (LGC Promochem, Teddington, UK) expressing the human NTS1R [52] were cultured in McCoy’s GLUTAMAX-I (Gibco BRL, Life Technologies, Grand Island, NY, USA) supplemented by 10% (v/v) fetal bovine serum (FBS), 100 U/mL penicillin and 100 μg/mL streptomycin (all from Biochrom KG Seromed, Berlin, Germany). Cells were kept in a controlled humidified atmosphere containing 5% CO2 at 37 °C. Passages were performed every 4–5 days using a trypsin/EDTA (0.05%/0.02% w/v) solution. The overall cell association–internalization of ^99mTc-DT1, ^99mTc-DT5 and ^99mTc-DT6 was assessed in confluent WiDr cells. Briefly, the cells were seeded in six-well plates (~1 × 10^6 cells per well) 24 h before the experiment. Each of ^99mTc-DT1, ^99mTc-DT5 and ^99mTc-DT6 (approximately 150,000 cpm, 250 fmol total peptide in 150 μL of 0.5% BSA/PBS) was added alone (total) or in the presence of 1 μM NT (non-specific). Cells were incubated at 37 °C for 1 h and incubation was interrupted by placing the plates on ice, removing the supernatants and rapid rinsing with ice-cold 0.5% BSA/PBS. Cells were then treated 2 × 5 min with acid wash buffer (2 × 0.6 mL, 50 mM glycine buffer, pH 2.8, 0.1 M NaCl) at room temperature and supernatants were collected (membrane-bound fraction). After rinsing with 1 mL chilled 0.5% BSA/PBS, cells were lyzed by treatment with 1 N NaOH (2 × 0.6 mL) and lysates were collected (internalized fraction). Sample radioactivity was measured in the γ-counter (an automated well-type gamma counter with a NaI(Tl) 3′′ crystal, Canberra Packard Auto-Gamma 5000 series instrument) and total cell-associated (internalized + membrane bound) radioactivity was determined vs. total added activity. Results represent the average values ± sd of 3 experiments in triplicate.

Consider “N4-βAla-Arg-Dab-Pro-Tyr-Ile-Leu-OH [^99mTc-DT5, ^99mTc-[N4-βAla^7,Dab^9]NT(7-13), ^99mTc-labeled acyclic tetraamine-coupled NT(7-13) analog DT5]”, for which the “internalized fraction vs total added activity” value stood at 3.2 ± 0.3% and the “NTS1R-specific cell uptake (internalized + membrane bound) vs total added activity” value stood at 3.7 ± 0.3%.
As to “N4-βAla-Arg-Dab-Pro-Tyr-Tle-Leu-OH [^99mTc-DT6, ^99mTc-[N4-βAla^7,Dab^9,Tle^12]]NT(7-13), ^99mTc-labeled acyclic tetraamine-coupled NT(7-13) analog DT6]”, the “internalized fraction vs total added activity” value is on record as 0.8 ± 0.4% and the “NTS1R-specific cell uptake (internalized + membrane bound) vs total added activity” value was determined as 1.0 ± 0.4%.
Turning to “N4-Gly-Arg-Arg-Pro-Tyr-Ile-Leu-OH [^99mTc-DT1, ^99mTc-[N4-Gly^7]NT(7-13), ^99mTc-labeled acyclic tetraamine-coupled NT(7-13) analog DT1]”, the “internalized fraction vs total added activity” value is reported as 6.9 ± 2.1% and the “NTS1R-specific cell uptake (internalized + membrane bound) vs total added activity” value is 10.1 ± 2.3%.

The values are drawn from paper PMC7356968, “Key-Protease Inhibition Regimens Promote Tumor Targeting of Neurotensin Radioligands” (Pharmaceutics, 2020).
